In US9981959B2, “Thiazolyl and oxazolyl urea, thiourea, guanidine and cyanoguanidine compounds as TrkA kinase inhibitors” (Array BioPharma Inc., priority 2012, dated 2018):

Experiments:
Experiment in all cases: KinaseProfiler off-target kinase profiling
Assay type in all cases: biochemical
Settings in all cases: 10 μM, ATP near Km
EphA2 = biological target: T1, EphA2 (Homo sapiens, UniProt P29317)
T1 construct: purchased Millipore, Inc. (KinaseProfiler service)
Protocol: (§1) A representative compound of the invention (Example 2) was tested for off-target kinase activity at a concentration of 10 μM by Millipore, Inc. in their KinaseProfiler™ service against all the kinases available in their full kinase panel. The compound was run in duplicate at a concentration of ATP near the Km for each individual kinase according to Millipore's specifications. The results are shown in Table B. Data are reported as percent of control (POC) and are the average of the two replicates.

JNK3 = biological target: T2, JNK3 (Homo sapiens, UniProt P53779)
T2 construct: purchased Millipore, Inc. (KinaseProfiler service)
Protocol: as §1

c-RAF = biological target: T3, c-RAF (Homo sapiens, UniProt P04049, Y340D/Y341D)
T3 construct: purchased Millipore, Inc. (KinaseProfiler service)
Protocol: as §1

WNK3 = biological target: T4, WNK3 (Homo sapiens, UniProt Q9BYP7)
T4 construct: purchased Millipore, Inc. (KinaseProfiler service)
Protocol: as §1

STK33 = biological target: T5, STK33 (Homo sapiens, UniProt Q9BYT3)
T5 construct: purchased Millipore, Inc. (KinaseProfiler service)
Protocol: as §1

DAPK1 = biological target: T6, DAPK1 (Homo sapiens, UniProt P53355)
T6 construct: purchased Millipore, Inc. (KinaseProfiler service)
Protocol: as §1

AMPK(A1/B1/G1) = biological target: T7, AMPK(A1/B1/G1) (Homo sapiens, UniProt Q13131)
T7 construct: purchased Millipore (KinaseProfiler service)
Protocol: as §1

PKD2 = biological target: T8, PKD2 (Homo sapiens, UniProt Q9BZL6)
T8 construct: purchased Millipore, Inc. (KinaseProfiler service)
Protocol: as §1

Rsk1 = biological target: T9, Rsk1 (Homo sapiens, UniProt Q15418)
T9 construct: purchased Millipore, Inc. (KinaseProfiler service)
Protocol: as §1

MARK2 = biological target: T10, MARK2 (Homo sapiens, UniProt Q7KZI7)
T10 construct: purchased Millipore, Inc. (KinaseProfiler service)
Protocol: as §1

MKK4_m = biological target: T11, MKK4_m (Mus musculus, UniProt P47809)
T11 construct: purchased Millipore, Inc. (KinaseProfiler service)
Protocol: as §1

CDK2/cyclinE = biological target: T12, CDK2/cyclinE (Homo sapiens, UniProt P24941)
T12 construct: purchased Millipore, Inc. (KinaseProfiler service)
Protocol: as §1

PTK6 = biological target: T13, PTK6 (Homo sapiens, UniProt Q13882)
T13 construct: purchased Millipore, Inc. (KinaseProfiler service)
Protocol: as §1

AKT1 = biological target: T14, AKT1 (Homo sapiens, UniProt P31749)
T14 construct: purchased Millipore (KinaseProfiler service)
Protocol: as §1

Rsk2 = biological target: T15, Rsk2 (Homo sapiens, UniProt P51812)
T15 construct: purchased Millipore, Inc. (KinaseProfiler service)
T15 sequence (P51812 whole entry): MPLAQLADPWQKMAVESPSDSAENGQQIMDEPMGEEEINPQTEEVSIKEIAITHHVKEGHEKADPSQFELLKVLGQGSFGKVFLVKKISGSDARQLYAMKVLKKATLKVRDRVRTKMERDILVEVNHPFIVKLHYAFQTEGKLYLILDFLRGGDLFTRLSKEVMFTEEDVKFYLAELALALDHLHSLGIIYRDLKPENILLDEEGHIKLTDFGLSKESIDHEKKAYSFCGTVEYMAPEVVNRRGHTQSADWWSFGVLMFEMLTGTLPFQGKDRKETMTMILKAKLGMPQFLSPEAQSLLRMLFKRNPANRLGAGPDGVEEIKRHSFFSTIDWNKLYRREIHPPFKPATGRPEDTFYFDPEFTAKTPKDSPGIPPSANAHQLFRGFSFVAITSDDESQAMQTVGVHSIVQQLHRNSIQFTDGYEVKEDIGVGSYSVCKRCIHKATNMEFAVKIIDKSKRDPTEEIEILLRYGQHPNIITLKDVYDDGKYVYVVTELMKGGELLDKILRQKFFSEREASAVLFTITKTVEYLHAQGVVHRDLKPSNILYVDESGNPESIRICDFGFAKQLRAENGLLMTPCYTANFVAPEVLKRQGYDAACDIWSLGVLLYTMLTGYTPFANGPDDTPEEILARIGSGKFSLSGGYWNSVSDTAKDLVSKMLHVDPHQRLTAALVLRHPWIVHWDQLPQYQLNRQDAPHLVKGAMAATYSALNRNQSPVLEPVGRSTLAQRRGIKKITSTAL
Protocol: as §1

CDK1/cyclinB = biological target: T16, CDK1/cyclinB (Homo sapiens, UniProt P06493)
T16 construct: purchased Millipore (KinaseProfiler service)
Protocol: as §1

Fgr = biological target: T17, Fgr (Homo sapiens, UniProt P09769)
T17 construct: purchased Millipore, Inc. (KinaseProfiler service)
Protocol: as §1

CK1delta = biological target: T18, CK1delta (Homo sapiens, UniProt P48730)
T18 construct: purchased Millipore, Inc. (KinaseProfiler service)
T18 sequence (P48730 whole entry): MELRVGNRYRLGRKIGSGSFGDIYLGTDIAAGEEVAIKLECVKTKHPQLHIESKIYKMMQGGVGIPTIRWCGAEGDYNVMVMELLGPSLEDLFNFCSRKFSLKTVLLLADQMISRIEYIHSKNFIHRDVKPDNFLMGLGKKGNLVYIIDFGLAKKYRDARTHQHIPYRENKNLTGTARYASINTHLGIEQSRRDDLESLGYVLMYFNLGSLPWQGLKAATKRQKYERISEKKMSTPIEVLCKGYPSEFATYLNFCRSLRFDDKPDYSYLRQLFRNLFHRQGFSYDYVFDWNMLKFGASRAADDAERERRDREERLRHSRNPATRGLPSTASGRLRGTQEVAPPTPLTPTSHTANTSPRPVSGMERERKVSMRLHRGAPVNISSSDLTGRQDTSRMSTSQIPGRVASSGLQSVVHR
Protocol: as §1

Mer = biological target: T19, Mer (Homo sapiens, UniProt Q12866)
T19 construct: purchased Millipore, Inc. (KinaseProfiler service)
Protocol: as §1

NEK7 = biological target: T20, NEK7 (Homo sapiens, UniProt Q8TDX7)
T20 construct: purchased Millipore, Inc. (KinaseProfiler service)
T20 sequence (Q8TDX7 whole entry): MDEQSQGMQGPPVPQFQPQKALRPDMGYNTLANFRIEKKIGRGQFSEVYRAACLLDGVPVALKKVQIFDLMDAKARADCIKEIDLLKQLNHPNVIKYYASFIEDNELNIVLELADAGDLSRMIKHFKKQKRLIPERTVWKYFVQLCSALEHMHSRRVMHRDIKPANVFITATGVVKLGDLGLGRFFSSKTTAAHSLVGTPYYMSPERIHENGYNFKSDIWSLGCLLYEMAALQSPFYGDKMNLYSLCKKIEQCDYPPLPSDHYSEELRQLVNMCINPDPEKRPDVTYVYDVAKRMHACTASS
Protocol: as §1

Fms = biological target: T21, Fms (Homo sapiens, UniProt P07333)
T21 construct: purchased Millipore, Inc. (KinaseProfiler service)
Protocol: as §1

Pim-3 = biological target: T22, Pim-3 (Homo sapiens, UniProt Q86V86)
T22 construct: purchased Millipore, Inc. (KinaseProfiler service)
Protocol: as §1

CSK = biological target: T23, CSK (Homo sapiens, UniProt P41240)
T23 construct: purchased Millipore, Inc. (KinaseProfiler service)
Protocol: as §1

NEK6 = biological target: T24, NEK6 (Homo sapiens, UniProt Q9HC98)
T24 construct: purchased Millipore, Inc. (KinaseProfiler service)
Protocol: as §1

TAO2 = biological target: T25, TAO2 (Homo sapiens, UniProt Q9UL54)
T25 construct: purchased Millipore, Inc. (KinaseProfiler service)
Protocol: as §1

PTK5 = biological target: T26, PTK5 (Homo sapiens, UniProt P42685)
T26 construct: purchased Millipore, Inc. (KinaseProfiler service)
T26 sequence (P42685 whole entry): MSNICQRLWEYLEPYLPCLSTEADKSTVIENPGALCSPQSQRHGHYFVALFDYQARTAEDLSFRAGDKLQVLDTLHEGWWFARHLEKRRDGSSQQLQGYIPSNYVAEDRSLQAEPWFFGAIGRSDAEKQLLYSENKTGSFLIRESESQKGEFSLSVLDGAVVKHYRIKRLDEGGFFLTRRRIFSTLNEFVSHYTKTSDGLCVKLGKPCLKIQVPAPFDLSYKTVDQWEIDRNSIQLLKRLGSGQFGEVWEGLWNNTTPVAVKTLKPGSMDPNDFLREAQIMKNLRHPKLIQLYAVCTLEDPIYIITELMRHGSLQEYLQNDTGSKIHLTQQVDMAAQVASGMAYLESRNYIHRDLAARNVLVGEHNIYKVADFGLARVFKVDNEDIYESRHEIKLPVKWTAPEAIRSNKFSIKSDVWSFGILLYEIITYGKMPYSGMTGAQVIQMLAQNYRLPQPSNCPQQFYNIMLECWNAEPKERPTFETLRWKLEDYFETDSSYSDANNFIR
Protocol: as §1

CHK2 = biological target: T27, CHK2 (Homo sapiens, UniProt O96017)
T27 construct: purchased Millipore, Inc. (KinaseProfiler service)
T27 sequence (O96017 whole entry): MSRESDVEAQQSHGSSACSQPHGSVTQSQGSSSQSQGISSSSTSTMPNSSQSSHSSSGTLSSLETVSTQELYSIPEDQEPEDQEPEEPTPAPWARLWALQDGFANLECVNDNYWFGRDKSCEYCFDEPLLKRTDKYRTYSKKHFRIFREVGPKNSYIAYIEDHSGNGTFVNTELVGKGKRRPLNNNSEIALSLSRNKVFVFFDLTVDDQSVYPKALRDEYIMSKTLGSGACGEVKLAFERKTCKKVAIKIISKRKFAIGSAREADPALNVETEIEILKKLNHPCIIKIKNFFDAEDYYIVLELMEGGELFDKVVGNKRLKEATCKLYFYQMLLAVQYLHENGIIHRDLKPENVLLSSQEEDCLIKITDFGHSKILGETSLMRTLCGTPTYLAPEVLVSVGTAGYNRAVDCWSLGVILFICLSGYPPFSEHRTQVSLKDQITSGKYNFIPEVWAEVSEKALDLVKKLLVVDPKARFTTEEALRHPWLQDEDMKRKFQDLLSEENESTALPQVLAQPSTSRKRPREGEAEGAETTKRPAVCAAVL
Protocol: as §1

CAMK2g = biological target: T28, CAMK2g (Homo sapiens, UniProt Q13555)
T28 construct: purchased Millipore (KinaseProfiler service)
Protocol: as §1

MKK6 = biological target: T29, MKK6 (Homo sapiens, UniProt P52564)
T29 construct: purchased Millipore, Inc. (KinaseProfiler service)
T29 sequence (P52564 whole entry): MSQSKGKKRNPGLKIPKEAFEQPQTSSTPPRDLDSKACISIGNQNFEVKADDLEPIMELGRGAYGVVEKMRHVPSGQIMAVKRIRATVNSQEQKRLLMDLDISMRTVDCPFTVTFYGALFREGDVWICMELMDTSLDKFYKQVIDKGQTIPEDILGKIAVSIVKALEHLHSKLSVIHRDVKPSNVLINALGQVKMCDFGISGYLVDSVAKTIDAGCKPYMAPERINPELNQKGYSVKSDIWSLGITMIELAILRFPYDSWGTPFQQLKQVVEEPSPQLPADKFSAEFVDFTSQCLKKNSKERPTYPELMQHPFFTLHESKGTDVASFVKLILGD
Protocol: as §1

FAK2 = biological target: T30, FAK2 (Homo sapiens, UniProt Q14289)
T30 construct: purchased Millipore, Inc. (KinaseProfiler service)
T30 sequence (Q14289 whole entry): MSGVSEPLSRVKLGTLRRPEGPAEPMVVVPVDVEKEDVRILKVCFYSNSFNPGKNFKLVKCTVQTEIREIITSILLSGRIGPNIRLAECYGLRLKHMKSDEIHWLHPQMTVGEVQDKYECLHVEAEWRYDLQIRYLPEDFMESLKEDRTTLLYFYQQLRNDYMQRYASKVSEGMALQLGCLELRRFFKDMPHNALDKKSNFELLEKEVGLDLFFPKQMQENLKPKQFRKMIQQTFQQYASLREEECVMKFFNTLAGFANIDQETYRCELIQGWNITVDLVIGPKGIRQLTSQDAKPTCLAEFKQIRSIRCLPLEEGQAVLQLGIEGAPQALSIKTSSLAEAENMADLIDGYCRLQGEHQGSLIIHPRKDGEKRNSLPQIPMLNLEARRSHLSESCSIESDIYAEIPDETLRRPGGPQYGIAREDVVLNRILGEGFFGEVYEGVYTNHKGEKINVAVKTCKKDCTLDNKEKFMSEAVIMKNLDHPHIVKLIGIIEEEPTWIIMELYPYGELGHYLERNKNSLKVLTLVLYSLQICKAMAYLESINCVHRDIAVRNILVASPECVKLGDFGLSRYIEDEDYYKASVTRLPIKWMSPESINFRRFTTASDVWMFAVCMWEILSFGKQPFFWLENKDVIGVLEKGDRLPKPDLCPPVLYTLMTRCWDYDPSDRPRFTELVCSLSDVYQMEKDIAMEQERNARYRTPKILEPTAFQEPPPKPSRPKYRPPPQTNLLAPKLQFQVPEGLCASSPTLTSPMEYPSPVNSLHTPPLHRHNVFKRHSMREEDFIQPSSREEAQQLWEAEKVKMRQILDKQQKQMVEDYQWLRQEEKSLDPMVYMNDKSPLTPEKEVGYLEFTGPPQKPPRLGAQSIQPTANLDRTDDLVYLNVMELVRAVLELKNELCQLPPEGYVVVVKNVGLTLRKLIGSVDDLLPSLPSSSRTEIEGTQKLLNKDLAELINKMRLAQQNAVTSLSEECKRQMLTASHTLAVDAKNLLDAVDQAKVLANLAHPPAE
Protocol: as §1

Rse = biological target: T31, Rse (Homo sapiens, UniProt Q06418)
T31 construct: purchased Millipore, Inc. (KinaseProfiler service)
Protocol: as §1

p38delta = biological target: T32, p38delta (Homo sapiens, UniProt O15264)
T32 construct: purchased Millipore, Inc. (KinaseProfiler service)
Protocol: as §1

PKCalpha = biological target: T33, PKCalpha (Homo sapiens, UniProt P17252)
T33 construct: purchased Millipore, Inc. (KinaseProfiler service)
Protocol: as §1

SGK3 = biological target: T34, SGK3 (Homo sapiens, UniProt Q96BR1)
T34 construct: purchased Millipore, Inc. (KinaseProfiler service)
Protocol: as §1

PAK4 = biological target: T35, PAK4 (Homo sapiens, UniProt O96013)
T35 construct: purchased Millipore, Inc. (KinaseProfiler service)
Protocol: as §1

Pim-1 = biological target: T36, Pim-1 (Homo sapiens, UniProt P11309)
T36 construct: purchased Millipore, Inc. (KinaseProfiler service)
Protocol: as §1

Rsk3 = biological target: T37, Rsk3 (Homo sapiens, UniProt Q15349)
T37 construct: purchased Millipore, Inc. (KinaseProfiler service)
Protocol: as §1

TBK1 = biological target: T38, TBK1 (Homo sapiens, UniProt Q9UHD2)
T38 construct: purchased Millipore, Inc. (KinaseProfiler service)
T38 sequence (Q9UHD2 whole entry): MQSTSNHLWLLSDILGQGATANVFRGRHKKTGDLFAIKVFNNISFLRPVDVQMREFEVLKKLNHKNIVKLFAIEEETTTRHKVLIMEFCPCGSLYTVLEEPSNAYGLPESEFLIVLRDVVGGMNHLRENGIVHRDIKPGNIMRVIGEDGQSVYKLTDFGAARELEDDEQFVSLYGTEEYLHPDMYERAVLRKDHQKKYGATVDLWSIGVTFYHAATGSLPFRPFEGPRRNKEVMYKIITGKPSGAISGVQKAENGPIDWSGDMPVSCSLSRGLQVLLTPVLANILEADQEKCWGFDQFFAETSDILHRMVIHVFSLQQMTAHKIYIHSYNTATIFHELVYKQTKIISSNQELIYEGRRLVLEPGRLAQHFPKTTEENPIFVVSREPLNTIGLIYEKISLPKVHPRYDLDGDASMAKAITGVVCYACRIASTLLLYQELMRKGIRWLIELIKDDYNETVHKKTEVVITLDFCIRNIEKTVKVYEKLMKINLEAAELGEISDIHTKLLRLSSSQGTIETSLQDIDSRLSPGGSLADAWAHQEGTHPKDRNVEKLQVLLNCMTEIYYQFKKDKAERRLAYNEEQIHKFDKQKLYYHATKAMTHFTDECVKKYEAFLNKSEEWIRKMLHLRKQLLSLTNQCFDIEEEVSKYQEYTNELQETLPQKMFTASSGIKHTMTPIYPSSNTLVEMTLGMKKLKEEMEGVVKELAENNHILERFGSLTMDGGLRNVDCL
Protocol: as §1

EphB4 = biological target: T39, EphB4 (Homo sapiens, UniProt P54760)
T39 construct: purchased Millipore, Inc. (KinaseProfiler service)
Protocol: as §1

NLK = biological target: T40, NLK (Homo sapiens, UniProt Q9UBE8)
T40 construct: purchased Millipore, Inc. (KinaseProfiler service)
Protocol: as §1

MST3 = biological target: T41, MST3 (Homo sapiens, UniProt Q9Y6E0)
T41 construct: purchased Millipore, Inc. (KinaseProfiler service)
T41 sequence (Q9Y6E0 whole entry): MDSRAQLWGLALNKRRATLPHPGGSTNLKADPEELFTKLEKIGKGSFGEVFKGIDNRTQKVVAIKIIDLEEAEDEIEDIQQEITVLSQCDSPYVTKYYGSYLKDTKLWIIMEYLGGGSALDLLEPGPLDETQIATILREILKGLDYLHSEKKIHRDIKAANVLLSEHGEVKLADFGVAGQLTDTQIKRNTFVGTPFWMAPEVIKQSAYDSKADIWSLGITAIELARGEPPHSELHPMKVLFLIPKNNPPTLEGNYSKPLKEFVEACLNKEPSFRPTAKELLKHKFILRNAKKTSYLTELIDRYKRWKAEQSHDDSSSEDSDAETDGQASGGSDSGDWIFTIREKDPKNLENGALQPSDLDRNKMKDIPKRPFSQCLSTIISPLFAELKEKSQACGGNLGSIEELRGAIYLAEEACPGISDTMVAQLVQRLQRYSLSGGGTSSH
Protocol: as §1

Cc1c(-c2cnn(C)c2)nn(-c2ccccc2)c1NC(=O)Nc1sc(C(F)(F)F)nc1-c1ccccc1 [Example 2, 1-(1′,4-dimethyl-1-phenyl-1H,1′H-[3,4′-bipyrazol]-5-yl)-3-(4-phenyl-2-(trifluoromethyl)thiazol-5-yl)urea]
Avg POC (EphA2): 127 POC | Avg POC (JNK3): 120 POC | Avg POC (c-RAF): 96.5 POC | Avg POC (WNK3): 112.5 POC | Avg POC (STK33): 120.5 POC | Avg POC (DAPK1): 126.5 POC | Avg POC (AMPK(A1/B1/G1)): 134.5 POC | Avg POC (PKD2): 110.5 POC | Avg POC (Rsk1): 123.5 POC | Avg POC (MARK2): 100.5 POC | Avg POC (MKK4_m): 73.5 POC | Avg POC (CDK2/cyclinE): 100 POC | Avg POC (PTK6): 113.5 POC | Avg POC (AKT1): 133 POC | Avg POC (Rsk2): 131 POC | Avg POC (CDK1/cyclinB): 106 POC | Avg POC (Fgr): 128 POC | Avg POC (CK1delta): 117.5 POC | Avg POC (Mer): 105.5 POC | Avg POC (NEK7): 119.5 POC | Avg POC (Fms): 89.5 POC | Avg POC (Pim-3): 107.5 POC | Avg POC (CSK): 136 POC | Avg POC (NEK6): 117.5 POC | Avg POC (TAO2): 123.5 POC | Avg POC (PTK5): 104.5 POC | Avg POC (CHK2): 133 POC | Avg POC (CAMK2g): 103 POC | Avg POC (MKK6): 134 POC | Avg POC (FAK2): 107 POC | Avg POC (Rse): 108 POC | Avg POC (p38delta): 104.5 POC | Avg POC (PKCalpha): 102.5 POC | Avg POC (SGK3): 151 POC | Avg POC (PAK4): 103.5 POC | Avg POC (Pim-1): 109.5 POC | Avg POC (Rsk3): 99 POC | Avg POC (TBK1): 100.5 POC | Avg POC (EphB4): 130 POC | Avg POC (NLK): 125.5 POC | Avg POC (MST3): 157.5 POC
